In US10344026B2, “Compositions and methods of targeting mutant K-ras” (NANTBIO, INC., priority 2017, dated 2019):

Legend:
Format in all cases: cell-based
wild type K-Ras = biological target: T1, wild type K-Ras (Homo sapiens, UniProt P01116); test: G-LISA Ras activation, 293H cells transfected with Ras wild-type, EGF stimulated; settings: compound 1 hour, then 100 ng/ml EGF 2 minutes
T1 construct: expressed in transfected cells; host or cells: 293H cells
Method in brief: (§1)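 Seed 293H cells, transfect with Ras wild-type or mutant vector, treat with compound (3.125-25 μM, 1 h), stimulate wild-type cells with EGF (100 ng/ml, 2 min), lyse in ice-cold buffer, then measure GTP-Ras by G-LISA.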

K-Ras G12D = biological target: T2, K-Ras G12D (Homo sapiens, UniProt P01116, G12D); test: G-LISA Ras activation, 293H cells transfected with G12D mutant; settings: compound 1 hour
T2 construct: expressed in transfected cells; host or cells: 293H cells
Method in brief: as §1

[1] = system: Ishikawa (K-Ras wild type cell line); test: Viability assay (CellTiterBlue, 72 hr) Ishikawa; settings: Homo sapiens, GI50, CellTiterBlue, Ishikawa K-Ras wild-type
Method in brief: (§2)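 Fluorescence at Ex550/Em590, read 3 hr after CellTiterBlue addition, served as the viability signal following 72 hr compound treatment. Wells held 1000 cells, pre-incubated 18 hr at 37 °C, with 0.5% DMSO final. GI50 derived with DMSO as 100% and 100 uM tamoxifen as 0% viability.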

[2] = system: U87-MG (K-Ras wild type cell line); test: Viability assay (CellTiterBlue, 72 hr) U87-MG; settings: Homo sapiens, U-87 MG, GI50, CellTiterBlue, U87-MG K-Ras wild-type
Method in brief: as §2

[3] = system: HCC827 (K-Ras wild type cell line); test: Viability assay (CellTiterBlue, 72 hr) HCC827; settings: Homo sapiens, GI50, CellTiterBlue, HCC827 K-Ras wild-type
Method in brief: as §2

[4] = system: A375 (K-Ras wild type cell line); test: Viability assay (CellTiterBlue, 72 hr) A375; settings: Homo sapiens, A-375, GI50, CellTiterBlue
Method in brief: as §2

Panc1-G12D = test: Viability assay (CellTiterBlue, 72 hr) Panc1; settings: Homo sapiens, PANC-1, GI50, CellTiterBlue, Panc1 K-Ras G12D, read-out: 72 hr Cell Viability Panc1 (G12D)
Method in brief: as §2

Panc10.05-G12D = test: Viability assay (CellTiterBlue, 72 hr) Panc10.05; settings: Homo sapiens, Panc1005, GI50, CellTiterBlue, Panc10.05 K-Ras G12D, read-out: 72 hr Cell Viability Panc10.05 (G12D)
Method in brief: as §2

HCT116-G31D = test: Viability assay (CellTiterBlue, 72 hr) HCT116; settings: Homo sapiens, HCT-116, GI50, CellTiterBlue, HCT116 K-Ras G13D, read-out: 72 hr Cell Viability HCT116 (G13D)
Method in brief: as §2

[5] = system: phospho-ERK in HCC827 (Wild-type); test: In-Cell Western phospho-ERK, HCC827; settings: Homo sapiens, 1 h; HCC827, one hour treatment; read-out: In-Cell Western HCC827 (Wild-type) Erk (P)
Method in brief: (§3)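 Cells were seeded at 3000 cells/well, incubated 18 hr at 37° C, then treated with compound for 1 hr (0.5% DMSO final). After fixation, permeabilization and blocking, phospho-Akt or phospho-ERK antibodies were applied overnight at 4° C, followed by secondary antibody; cellular fluorescence was imaged and EC50 calculated.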

[6] = system: phospho-ERK in A375 (Wild-type); test: In-Cell Western phospho-ERK, A375; settings: Homo sapiens, A-375, 1 h; A375, one hour treatment; read-out: In-Cell Western A375 (Wild-type) Erk (P)
Method in brief: as §3

[7] = system: phospho-Akt in A375 (Wild-type); test: In-Cell Western phospho-Akt, A375; settings: Homo sapiens, A-375, 1 h; A375, one hour treatment; read-out: In-Cell Western A375 (Wild-type) Akt (P)
Method in brief: as §3

[8] = system: phospho-ERK in Panc1 (G12D); test: In-Cell Western phospho-ERK, Panc1; settings: Homo sapiens, PANC-1, 1 h; Panc1, one hour treatment; read-out: In-Cell Western Panc1 (G12D) Erk (P)
Method in brief: as §3

[9] = system: phospho-Akt in Panc1 (G12D); test: In-Cell Western phospho-Akt, Panc1; settings: Homo sapiens, PANC-1, 1 h; Panc1, one hour treatment; read-out: In-Cell Western Panc1 (G12D) Akt (P)
Method in brief: as §3

[10] = system: phospho-ERK in Panc10.05 (G12D); test: In-Cell Western phospho-ERK, Panc10.05; settings: Homo sapiens, Panc1005, 1 h; Panc10.05, one hour treatment; read-out: In-Cell Western Panc10.05 (G12D) Erk (P)
Method in brief: as §3

[11] = system: phospho-Akt in Panc10.05 (G12D); test: In-Cell Western phospho-Akt, Panc10.05; settings: Homo sapiens, Panc1005, 1 h; Panc10.05, one hour treatment; read-out: In-Cell Western Panc10.05 (G12D) Akt (P)
Method in brief: as §3

T1 sequence (P01116 whole entry): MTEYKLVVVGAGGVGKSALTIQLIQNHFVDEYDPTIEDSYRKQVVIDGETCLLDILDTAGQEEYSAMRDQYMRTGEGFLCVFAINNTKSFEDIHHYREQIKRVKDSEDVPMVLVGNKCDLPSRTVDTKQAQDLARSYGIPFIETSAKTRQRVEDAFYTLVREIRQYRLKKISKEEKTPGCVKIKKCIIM
T2 sequence (P01116 whole entry G12D): as the sequence (P01116 whole entry) above, with G12D counted along it

Structure (SMILES)	IC50 (wild type K-Ras) [µM]	IC50 (K-Ras G12D) [µM]	IC50 [1] [µM]	IC50 [2] [µM]	IC50 [3] [µM]	IC50 [4] [µM]	IC50 (Panc1-G12D) [µM]	IC50 (Panc10.05-G12D) [µM]	IC50 (HCT116-G31D) [µM]	EC50 [5] [µM]	EC50 [6] [µM]	EC50 [7] [µM]	EC50 [8] [µM]	EC50 [9] [µM]	EC50 [10] [µM]	EC50 [11] [µM]
COC(=O)CCCN1C(=O)CCc2cc(-c3csc(NC(=O)c4oc(C)nc4C)n3)ccc21 [Compound 100, methyl 4-(6-(2-(2,4-dimethyloxazole-5-carboxamido)thiazol-4-yl)-2-oxo-3,4-dihydroquinolin-1 (2H)-yl)butanoate]	9.5	5.5	3	> 25	> 25	4	5	5	> 25	3	4	5	17	25	3	7
CCc1nc(C)c(C(=O)Nc2nc(-c3ccc4c(c3)CCC(=O)N4Cc3cccnc3)cs2)s1 [Compound 106, 2-ethyl-4-methyl-N-(4-(2-oxo-1-(pyridin-3-ylmethyl)-1,2,3,4-tetrahydroquinoinolin-6-yl)thiazol-2-yl)thiazole-5-carboxamide]	9.6	4.4	> 25	> 25	> 25	22	12	3	6	7	20	> 25	5	25	10	> 25
Cc1nc(C(C)C)oc1C(=O)Nc1nc(-c2ccc3c(c2)CCC(=O)N3Cc2cccnc2)cs1 [Compound 91]	11.7	8.4	> 25	> 25	3	> 25	5	2	1.5	11	5	5	8	4	1.4	12
COCCCN1C(=O)CCc2cc(-c3csc(NC(=O)c4oc(C)nc4C)n3)ccc21 [Compound 96, N-(4-(1-(3-methoxypropyl)-2-oxo-1,2,3,4-tetrahydroquinolin-6-yl)thiazol-2-yl)-2,4-dimethyloxazole-5-carboxamide]	12.1	5	> 25	> 25	4	> 25	4	3	3	7	6	6	7	4	1.1	9
Cn1nc(C(C)(C)C)cc1C(=O)Nc1nc(-c2ccc3c(c2)CCC(=O)N3)cs1 [Compound 43, 3-(tert-butyl)-1-methyl-N-(4-(2-oxo-1,2,3,4-tetrahydroquinolin-6-yl)thiazol-2-yl)-1H-pyrazole-5-carboxamide]	> 25	> 25	> 25	> 25	> 25	> 25	> 25	> 25	> 25	19	> 25	> 25	> 25	> 25	> 25	> 25
Cc1nc(C(C)C)sc1C(=O)Nc1nc(-c2ccc3c(c2)CCC(=O)N3Cc2cccnc2)cs1 [Compound 107, 2-isopropyl-4-methyl-N-(4-(2-oxo-1-(pyridin-3-ylmethyl)-1,2,3,4-tetrahydroquinolin-6-yl)thiazol-2-yl)thiazole-5-carboxamide]	9.7	6.6	> 25	> 25	> 25	19	> 25	2	6	6	16	> 25	6	> 25	10	> 25
CCn1nc(C)c(C(=O)Nc2nc(-c3ccc4c(c3)CCC(=O)N4Cc3cccnc3)cs2)c1C [Compound 114, 1-ethyl-3,5-dimethyl-N-(4-(2-oxo-1-(pyridin-3-ylmethyl)-1,2,3,4-tetrahydroquinolin-6-yl)thiazol-2-yl)-1H-pyrazole-4-carboxamide]	6	3	> 25	> 25	> 25	6	22	1.1	5	4	5	> 25	1.1	17	1.9	17
COc1cccc(CN2C(=O)CCc3cc(-c4csc(NC(=O)c5oc(C)nc5C)n4)ccc32)c1OC [Compound 93, N-(4-(1-(2,3-dimethoxybenzyl)-2-oxo-1,2,3,4-tetrahydroquinolin-6-yl)thiazol-2-yl)-2,4-dimethyloxazole-5-carboxamide]	10	8.6	> 25	> 25	> 25	> 25	9	5	4	> 25	> 25	> 25	8	6	1.2	15
COC(=O)CCN1C(=O)CCc2cc(-c3csc(NC(=O)c4oc(C)nc4C)n3)ccc21 [Compound 99, methyl 3-(6-(2-(2,4-dimethyloxazole-5-carboxamido)thiazol-4-yl)-2-oxo-3,4-dihydroquinoiolin-1 (2H)-yl)propanoate]	10.2	6.7	4	> 25	> 25	6	6	6	> 25	5	> 25	> 25	14	> 25	5	10
Cc1nc(C2CCC2)oc1C(=O)Nc1nc(-c2ccc3c(c2)CCC(=O)N3Cc2cccnc2)cs1 [Compound 92, 2-cyclobutyl-4-methyl-N-(4-(2-oxo-1-(pyridin-3-ylmethyl)-1,2,3,4-tetrahydroquinolin-6-yl)thiazol-2-yl)oxazole-5-carboxamide]	15.2	8.5	> 25	> 25	4	> 25	6	3	1.5	15	> 25	> 25	6	–	2	17
